Experimental data published in ChEMBL document CHEMBL2375319, “Design, synthesis and structure-activity relationships of 3,5-diaryl-1H-pyrazoles as inhibitors of arylamine N-acetyltransferase” (Bioorg Med Chem Lett, 2013).
In brackets after ≈: the same amount, converted by molar mass.

Key:
[1] = Inhibition of Mycobacterium marinum recombinant arylamine N-acetyltransferase-mediated acetyl coA hydrolysis at 30 uM by DTNB-based spectrophotometric analysis
[2] = Inhibition of Mycobacterium marinum recombinant arylamine N-acetyltransferase-mediated acetyl coA hydrolysis by DTNB-based spectrophotometric analysis
[3] = Competitive inhibition of Mycobacterium marinum recombinant arylamine N-acetyltransferase-mediated acetyl coA hydrolysis by DTNB-based spectrophotometric analysis
[4] = Inhibition of Pseudomonas aeruginosa arylamine N-acetyltransferase
[5] = test system: Mycobacterium tuberculosis; assay: Antimycobacterial activity against Mycobacterium tuberculosis after 28 days; format: functional; conditions: 672 h

Structure (SMILES) | inhibition [1] [%] | IC50 [2] [µM] | Ki [3] [µM] | IC50 [4] [µM] | MIC [5] [µM]
COc1ccc(-c2cc(-c3ccccc3)n[nH]2)cc1 | 26.5 | > 30 | – | – | –
COc1cccc(-c2cc(-c3ccc(F)cc3)[nH]n2)c1 | 61.2 | 17.6 | – | – | –
COc1ccc(-c2cc(-c3cc(F)ccc3O)n[nH]2)cc1 | 46.5 | > 30 | – | – | –
Fc1ccc(-c2cc(-c3cc(F)ccc3F)n[nH]2)cc1 | 29.7 | > 30 | – | – | –
Fc1ccc(F)c(-c2cc(-c3ccccc3)[nH]n2)c1 | 53.5 | 18.8 | – | – | –
COc1ccc(-c2cc(-c3cccc(OC)c3)n[nH]2)cc1 | 26.5 | > 30 | – | – | –
COc1ccc(-c2cc(-c3cc(O)cc(O)c3)n[nH]2)cc1 | 15.6 | > 30 | – | – | –
COc1ccc(OC)c(-c2cc(-c3ccccc3)[nH]n2)c1 | 50.7 | 11.7 | – | – | –
Oc1ccc(F)cc1-c1cc(-c2ccc(F)cc2)[nH]n1 | 32.7 | > 30 | – | – | –
COc1ccc(-c2cc(-c3cc(OC)ccc3OC)n[nH]2)cc1 | 29.2 | > 30 | – | – | –
c1ccc(-c2cc(-c3ccccc3)[nH]n2)cc1 | 45.2 | > 30 | – | – | –
COc1ccc(-c2cc(-c3cc(OC)ccc3O)[nH]n2)cc1 | 65.8 | 18.5 | 23.2 | 9.7 | 34 (≈ 10.1 µg/mL)
COc1ccc(O)c(-c2cc(-c3ccccc3)[nH]n2)c1 | 53.9 | 12.9 | – | – | –
COc1ccc(-c2cc(-c3cc(O)ccc3O)n[nH]2)cc1 | 21.5 | > 30 | – | – | –
COc1ccc(-c2cc(-c3cc(F)ccc3F)n[nH]2)cc1 | 18.9 | > 30 | – | – | –
COc1ccc(O)c(-c2cc(-c3ccc(F)cc3)[nH]n2)c1 | 59.2 | 21.3 | – | – | –
